The values that follow are results of earlier work, collected in US11160745B2, “Methods and compositions for topical delivery for skin care” (priority 2014, dated 2021).

Where two headings read alike, the source gives them in different places.

One data set relates to wrinkles around the eyes. As to conditions: for Reduction of the depth of wrinkles: independent study; for Decrease in severity of wrinkles around the eyes: ONV emulsion containing 10% Argireline solution, twice a day.
Another data set addresses T1, ternary SNARE complex (Homo sapiens, UniProt Q16623).
T1 construct: Chromaffin cells were prepared and further separated from erythrocytes and other impurities by centrifugation gradient; endogenous in cells; complex immunoprecipitated
As to conditions: immunoblot with anti-syntaxin mAb. Background: A western blot detects proteins with antibodies after separation by electrophoresis.

A further data set concerns chromaffin cells. As to conditions: tritiated noradrenaline/adrenaline, liquid scintillation counting.

T1 sequence (Q16623 whole entry, one chain of several): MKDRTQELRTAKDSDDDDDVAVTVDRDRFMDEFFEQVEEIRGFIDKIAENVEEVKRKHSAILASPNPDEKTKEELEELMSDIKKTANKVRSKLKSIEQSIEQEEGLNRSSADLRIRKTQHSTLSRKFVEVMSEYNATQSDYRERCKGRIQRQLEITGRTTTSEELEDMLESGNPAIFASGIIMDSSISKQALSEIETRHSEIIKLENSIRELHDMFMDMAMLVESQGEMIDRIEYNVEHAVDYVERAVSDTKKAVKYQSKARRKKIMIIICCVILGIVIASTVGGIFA

For the substance “Ac-EEMQRR-NH2 [Argireline, (6S,9S,12S,15S,18S,21 S)-21-Acetamido-1-amino-12-(3-amino-3-oxopropyl)-6-carbamoyl-18-(2-carboxyethyl)-9-(3-guanidinopropyl)-1-imino-15-(2-(methylthio)ethyl)-8,11,14,17,20-pentaoxo-2,7,10,13,16,19-hexaazatetracosan-24-oic acid]”, the figures for the “Reduction of the depth of wrinkles” value in the data set on wrinkles around the eyes (after 15 days of treatment) and in the data set with wrinkles around the eyes (following 30 days of treatment) were “up to 17%” and “up to 27%”, respectively. The “Decrease in severity of wrinkles around the eyes” value was “up to 17%” in the data set on wrinkles around the eyes (after 15 days) and “up to 27%” in the data set on wrinkles around the eyes (after 30 days). For the same substance, the SNARE complex formation result at ternary SNARE complex is “modulates SNARE complex formation at concentrations in the mM range”. Further, the “Release of catecholamines (adrenaline and noradrenaline)” value in the data set with chromaffin cells is given as “significant modulation of both neurotransmitters at nM concentrations”.
